In patent publication US20170190671A1, “BIS(ARYL)CATECHOL DERIVATIVES AS HERBICIDES” (E I DU PONT DE NEMOURS AND COMPANY, priority 2014, published 2017):

Experiments:
Assay in all cases: Test E preemergence
Type in all cases: in vivo
Conditions in all cases: scale 0 to 100
[1] = system: Brazilian crabgrass (Digitaria horizontalis)
Text: (§1) Seeds of plant species selected from corn (Zea mays), soybean (Glycine max), velvetleaf (Abutilon theophrasti), cocklebur (common cocklebur, Xanthium strumarium), lambsquarters (Chenopodium album), wild poinsettia (Euphorbia heterophylla), palmer pigweed (Amaranthus palmeri), waterhemp (common waterhemp, Amaranthus rudis), surinam grass (Brachiaria decumbens), large (Lg) crabgrass (Digitaria sanguinalis), Brazilian crabgrass (Digitaria horizontalis), fall panicum (Panicum dichotomiflorum), giant foxtail (Setaria faberii), green foxtail (Setaria viridis), goosegrass (Eleusine indica), johnsongrass (Sorghum halepense), ragweed (common ragweed, Ambrosia elatior), barnyardgrass (Echinochloa crus-galli), sandbur (southern sandbur, Cenchrus echinatus), arrowleaf sida (Sida rhombifolia), Italian ryegrass (Lolium multiflorum), dayflower (Virginia (VA) dayflower, Commelina virginica), field bindweed (Convolvulus arvensis), morningglory (Ipomoea coccinea), nightshade (eastern black nightshade, Solanum ptycanthum), kochia (Kochia scoparia), yellow nutsedge (Cyperus esculentus), horseweed (Conyza canadensis), and hairy beggarticks (Bidens pilosa), were planted into a silt loam soil and treated preemergence with test chemicals formulated in a non-phytotoxic solvent mixture which included a surfactant.
(§2) At the same time, plants from these crop and weed species and also waterhemp_RES1, (ALS & Triazine resistant common waterhemp, Amaranthus rudis), and waterhemp_RES2, (ALS & HPPD resistant common waterhemp, Amaranthus rudis) were planted in pots containing Redi-Earth® planting medium (Scotts Company, 14111 Scottslawn Road, Marysville, Ohio 43041) comprising spaghnum peat moss, vermiculite, wetting agent and starter nutrients were treated with postemergence applications of test chemicals formulated in the same manner. Plants ranged in height from 2 to 18 cm for postemergence treatments (1- to 4-leaf stage). Treated plants and controls were maintained in a greenhouse for 14 to 21 days, after which time all species were compared to controls and visually evaluated. Plant response ratings, summarized in Table E, are based on a scale of 0 to 100 where 0 is no effect and 100 is complete control. A dash (-) response means no test result.

[2] = system: Italian ryegrass (Lolium multiflorum)
Text: as §1, §2

[3] = system: arrowleaf sida (Sida rhombifolia)
Text: as §1, §2

[4] = system: barnyardgrass (Echinochloa crus-galli)
Text: as §1, §2

corn (Zea mays) = system: corn (Zea mays)
Text: as §1, §2

[5] = system: dayflower (Virginia (VA) dayflower, Commelina virginica)
Text: as §1, §2

[6] = system: fall panicum (Panicum dichotomiflorum)
Text: as §1, §2

[7] = system: giant foxtail (Setaria faberii)
Text: as §1, §2

[8] = system: goosegrass (Eleusine indica)
Text: as §1, §2

[9] = system: green foxtail (Setaria viridis)
Text: as §1, §2

[10] = system: hairy beggarticks (Bidens pilosa)
Text: as §1, §2

[11] = system: lambsquarters (Chenopodium album)
Text: as §1, §2

[12] = system: large (Lg) crabgrass (Digitaria sanguinalis)
Text: as §1, §2

[13] = system: morningglory (Ipomoea coccinea)
Text: as §1, §2

[14] = system: nightshade (eastern black nightshade, Solanum ptycanthum)
Text: as §1, §2

[15] = system: ragweed (common ragweed, Ambrosia elatior)
Text: as §1, §2

[16] = system: sandbur (southern sandbur, Cenchrus echinatus)
Text: as §1, §2

soybean (Glycine max) = system: soybean (Glycine max)
Text: as §1, §2

[17] = system: velvetleaf (Abutilon theophrasti)
Text: as §1, §2

[18] = system: waterhemp (common waterhemp, Amaranthus rudis)
Text: as §1, §2

[19] = system: yellow nutsedge (Cyperus esculentus)
Text: as §1, §2

Fc1ccc(F)c(Oc2ncc(Cl)cn2)c1Oc1ncc(Cl)cn1 [Compound 34, 2,2′-[(3,6-difluoro-1,2-phenylene)bis(oxy)]bis[5-chloropyrimidine]]
Plant response rating, Crabgrass, Brazil ([1]; 16 g ai/ha): 0 | Plant response rating, Crabgrass, Brazil ([1]; 31 g ai/ha): 35 | Plant response rating, Crabgrass, Brazil ([1]; 62 g ai/ha): 95 | Plant response rating, Crabgrass, Brazil ([1]; 125 g ai/ha): 98 | Plant response rating, Ryegrass, Italian ([2]; 16 g ai/ha): 0 | Plant response rating, Ryegrass, Italian ([2]; 31 g ai/ha): 0 | Plant response rating, Ryegrass, Italian ([2]; 62 g ai/ha): 35 | Plant response rating, Ryegrass, Italian ([2]; 125 g ai/ha): 70 | Plant response rating, Arrowleaf Sida ([3]; 16 g ai/ha): 60 | Plant response rating, Arrowleaf Sida ([3]; 31 g ai/ha): 80 | Plant response rating, Arrowleaf Sida ([3]; 62 g ai/ha): 98 | Plant response rating, Arrowleaf Sida ([3]; 125 g ai/ha): 100 | Plant response rating, Barnyardgrass ([4]; 16 g ai/ha): 0 | Plant response rating, Barnyardgrass ([4]; 31 g ai/ha): 0 | Plant response rating, Barnyardgrass ([4]; 62 g ai/ha): 20 | Plant response rating, Barnyardgrass ([4]; 125 g ai/ha): 60 | Plant response rating, Corn (corn (Zea mays); 16 g ai/ha): 0 | Plant response rating, Corn (corn (Zea mays); 31 g ai/ha): 0 | Plant response rating, Corn (corn (Zea mays); 62 g ai/ha): 0 | Plant response rating, Corn (corn (Zea mays); 125 g ai/ha): 0 | Plant response rating, Dayflower, VA ([5]; 16 g ai/ha): 0 | Plant response rating, Dayflower, VA ([5]; 31 g ai/ha): 30 | Plant response rating, Dayflower, VA ([5]; 62 g ai/ha): 20 | Plant response rating, Dayflower, VA ([5]; 125 g ai/ha): 90 | Plant response rating, Panicum, Fall ([6]; 16 g ai/ha): 50 | Plant response rating, Panicum, Fall ([6]; 31 g ai/ha): 80 | Plant response rating, Panicum, Fall ([6]; 62 g ai/ha): 98 | Plant response rating, Panicum, Fall ([6]; 125 g ai/ha): 100 | Plant response rating, Foxtail, Giant ([7]; 16 g ai/ha): 0 | Plant response rating, Foxtail, Giant ([7]; 31 g ai/ha): 50 | Plant response rating, Foxtail, Giant ([7]; 62 g ai/ha): 85 | Plant response rating, Foxtail, Giant ([7]; 125 g ai/ha): 80 | Plant response rating, Goosegrass ([8]; 16 g ai/ha): 0 | Plant response rating, Goosegrass ([8]; 31 g ai/ha): 0 | Plant response rating, Goosegrass ([8]; 62 g ai/ha): 5 | Plant response rating, Goosegrass ([8]; 125 g ai/ha): 80 | Plant response rating, Foxtail, Green ([9]; 16 g ai/ha): 0 | Plant response rating, Foxtail, Green ([9]; 31 g ai/ha): 10 | Plant response rating, Foxtail, Green ([9]; 62 g ai/ha): 65 | Plant response rating, Foxtail, Green ([9]; 125 g ai/ha): 70 | Plant response rating, Beggarticks ([10]; 16 g ai/ha): 50 | Plant response rating, Beggarticks ([10]; 31 g ai/ha): 60 | Plant response rating, Beggarticks ([10]; 62 g ai/ha): 70 | Plant response rating, Beggarticks ([10]; 125 g ai/ha): 75 | Plant response rating, Lambsquarters ([11]; 16 g ai/ha): 0 | Plant response rating, Lambsquarters ([11]; 31 g ai/ha): 70 | Plant response rating, Lambsquarters ([11]; 62 g ai/ha): 90 | Plant response rating, Lambsquarters ([11]; 125 g ai/ha): 100 | Plant response rating, Crabgrass, Large ([12]; 16 g ai/ha): 0 | Plant response rating, Crabgrass, Large ([12]; 31 g ai/ha): 25 | Plant response rating, Crabgrass, Large ([12]; 62 g ai/ha): 98 | Plant response rating, Crabgrass, Large ([12]; 125 g ai/ha): 98 | Plant response rating, Morningglory ([13]; 31 g ai/ha): 20 | Plant response rating, Morningglory ([13]; 62 g ai/ha): 50 | Plant response rating, Morningglory ([13]; 125 g ai/ha): 65 | Plant response rating, Nightshade ([14]; 16 g ai/ha): 50 | Plant response rating, Nightshade ([14]; 31 g ai/ha): 50 | Plant response rating, Nightshade ([14]; 62 g ai/ha): 80 | Plant response rating, Nightshade ([14]; 125 g ai/ha): 95 | Plant response rating, Ragweed ([15]; 16 g ai/ha): 0 | Plant response rating, Ragweed ([15]; 31 g ai/ha): 0 | Plant response rating, Ragweed ([15]; 62 g ai/ha): 25 | Plant response rating, Ragweed ([15]; 125 g ai/ha): 35 | Plant response rating, Sandbur ([16]; 16 g ai/ha): 0 | Plant response rating, Sandbur ([16]; 31 g ai/ha): 0 | Plant response rating, Sandbur ([16]; 62 g ai/ha): 10 | Plant response rating, Sandbur ([16]; 125 g ai/ha): 70 | Plant response rating, Soybean (soybean (Glycine max); 16 g ai/ha): 0 | Plant response rating, Soybean (soybean (Glycine max); 31 g ai/ha): 10 | Plant response rating, Soybean (soybean (Glycine max); 62 g ai/ha): 25 | Plant response rating, Soybean (soybean (Glycine max); 125 g ai/ha): 60 | Plant response rating, Velvetleaf ([17]; 16 g ai/ha): 30 | Plant response rating, Velvetleaf ([17]; 31 g ai/ha): 100 | Plant response rating, Velvetleaf ([17]; 62 g ai/ha): 100 | Plant response rating, Velvetleaf ([17]; 125 g ai/ha): 100 | Plant response rating, Waterhemp ([18]; 16 g ai/ha): 100 | Plant response rating, Waterhemp ([18]; 31 g ai/ha): 100 | Plant response rating, Waterhemp ([18]; 62 g ai/ha): 100 | Plant response rating, Waterhemp ([18]; 125 g ai/ha): 100 | Plant response rating, Nutsedge, Yellow ([19]; 16 g ai/ha): 0 | Plant response rating, Nutsedge, Yellow ([19]; 31 g ai/ha): 0 | Plant response rating, Nutsedge, Yellow ([19]; 62 g ai/ha): 0 | Plant response rating, Nutsedge, Yellow ([19]; 125 g ai/ha): 0
